Values of other authors in patent publication US11338162B2 (priority 2013, dated 2022).

What was measured:
[1] = tested on: Lepomis macrochirus; details: in vivo
[2] = tested on: Pseudomonas putida; details: 16 h
[3] = tested on: Leuciscus idus (Golden orfe); details: in vivo
[4] = tested on: rat; details: in vivo
[5] = tested on: rabbit; details: in vivo, topical or ocular
[6] = tested on: Daphnia magna (Water flea); details: in vivo
[7] = tested on: Desmodesmus subspicatus (green algae); details: 24 h

CCCCOCCOCCO [DGME, diethylene glycol monobutyl ether]
Toxicity to fish LC50 [1]: 1,300 mg/l | Toxicity to bacteria LC50 - Pseudomonas putida [2]: 1,170 mg/l-16 h | Toxicity to fish LC50 [3]: >1,000 mg/l | LD50 Oral - rat [4]: 5,660 mg/kg | LD50 Dermal - rabbit [5]: 2,700 mg/kg | dermal LD50 in rabbits [5]: 2700 mg/kg | Toxicity to daphnia and other aquatic invertebrates LC50 - Daphnia magna (Water flea) [6]: 1,950 mg/l | Toxicity to algae IC50 - Desmodesmus subspicatus (green algae) [7]: >100 mg/l-24 h
